Consider 1 molecule from patent US10538518B2, “Processes for preparing an FGFR inhibitor” (Principia Biopharma, Inc., priority 2015, dated 2020).

What all share (assay type): physicochemical
The nature of series [1]: Dynamic vapor sorption/desorption (DVS) isotherm. On the procedure: Dynamic Vapor Sorption/Desorption (DVS)
Dynamic Vapor Sorption/Desorption (DVS) data was collected on a VTI SGA-100 Vapor Sorption Analyzer, using NaCl and PVP as calibration standards. Samples were not dried prior to analysis. Sorption and desorption data were collected over a range from 5% to 95% relative humidity (RH) at 10% RH increments under a nitrogen purge. The equilibrium criterion used for analysis was less than 0.01000% weight change in 5 minutes with a maximum equilibration time of 3 hours. Data were not corrected for the initial moisture content of the samples.

Series [2] can be described thus: Exposure to elevated relative humidity, form checked by XRPD. To be noted: 93% relative humidity, four days, ambient temperature. On the procedure:
XRPD patterns were obtained with a PANalytical X′Pert PRO MPD diffractometer using an incident beam of Cu radiation (1.54059 angstroms) produced using an Optix long, fine-focus source. The diffractometer was configured using the symmetric Bragg-Brentano geometry. Prior to analysis, a silicon sample (NIST SRM 640e) was analyzed to verify the observed position of the Si 111 peak was consistent with the NIST-certified position. A specimen of the sample was prepared as a thin, circular layer centered on a silicon zero-background substrate. Antiscatter slits (SS) were used to minimize the background generated by air. Soller slits for the incident and diffracted beams were used to minimize broadening fro axial divergence. Diffraction patterns were collected using a scanning position-sensitive detector located 240 mm from the sample.

Series [3] is described as follows: Thermogravimetric analysis (TGA). As to conditions: up to 200° C. On the procedure: Thermal Gravimetric Analysis
Thermal Gravimetric Analysis (TGA) was performed using a TA Instruments Discovery thermographic analyzer, with temperature calibration being performed using nickel and Alumel™. Each sample was placed in a pan, hermetically sealed, the lid pierced, and then inserted into the thermal gravimetric furnace which was heated under nitrogen.

For the molecule `C=CC(=O)N1CCN(CCCn2c(=O)c(-c3c(Cl)c(OC)cc(OC)c3Cl)cc3cnc(NC)nc32)CC1` [Form 1, 6-(2,6-dichloro-3,5-dimethoxyphenyl)-2-(methylamino)-8-[3-[4-(prop-2-enoyl)piperazin-1-yl]propyl]-7H,8H-pyrido[2,3-d]pyrimidin-7-one], in series [1] (sample evaluated after exposure to humidity in the DVS testing), the “phase change after DVS testing, by XRPD analysis” value is “a phase change did not occur”. Moreover, in series [1] (sorption/desorption 5% to 95% RH), the “hygroscopicity (DVS: weight gain in each sorption cycle, hysteresis upon desorption)” value is “not hygroscopic”. Also, the “weight percent change (DVS isotherm)” value in series [1] (up to a percent relative humidity of about 95% (94.79%)) is reported as no more than 0.31 wt %. For the same molecule, the “change in form observable by XRPD (physical stability at elevated humidity)” value in series [2] is reported as “did not result in any changes in form observable by XRPD”. The “weight loss (TGA)” value in series [3] is recorded as no more than 0.20%.
